How the values were obtained:
[1] = test system: parental and transduced Ba/F3 cultures; experiment: Toxicity of E2 or Tm in Ba/F3 cultures with IL-3; details: concentrations up to 10^−6 M
Description: (§1) Cultures containing IL-3 or G-CSF were split every three to four days, while Tm-containing cultures were diluted every four days. Cell proliferation assay was performed periodically in 96-well microtiter plates by the 2,3-bis (2-methoxy-4-nitro-5-sulfophenyl)-5-[(phenylamino)-carbonyl]-2H-tetrazolium hydroxide (XTT) method using Cell Proliferation Kit II (Boehringer Mannheim, Mannheim, Germany) [Scudiero D A, et al., Cancer Res., (1988) 48: 4827-4833]. For hormone dose-response analysis, transduced Ba/F3 cells were stimulated by various concentrations of Tm or E2, and XTT assay was performed on day zero and day four. The final concentration of ethanol used to dilute Tm and E2 was 0.1% in all the culture conditions.

BaF/ΔGCRTmR clones = experiment: XTT proliferation assay of BaF/ΔGCRTmR clones; format: cell-based; details: 10^−9 M G-CSF or 10^−7 M Tm; FIG. 17E-G
Description: as §1

BaF/GCRTmR clones = experiment: XTT proliferation assay of BaF/GCRTmR clones; format: cell-based; details: for growth of GCRTmR-transduced Ba/F3 cells with stimulator: IL-3, 10^−9 M G-CSF, 10^−7 M Tm or 10^−7 M E2, FIG. 17B-D
Description: as §1

Parental Ba/F3 cells = experiment: XTT proliferation assay of parental Ba/F3 cells; format: cell-based; details: IL-3, 10^−9 M G-CSF, 10^−7 M Tm, 10^−7 M E2; FIG. 17A
Description: as §1

[2] = test system: Ba/F3 cells into which pCMX-GCRΔ(5-195)/ER was introduced; experiment: XTT proliferation assay, Ba/F3 cells with pCMX-GCRΔ(5-195)/ER; format: cell-based; details: G-CSF or estradiol stimulation, FIG. 5
Text: The Ba/F3 cells into which “pCMX-GCRΔ(5-195)/ER” was introduced were then examined.

GCRER-expressing Ba/F3 = details: Ito K, et al., Blood (1997), cited from earlier work
[3] = test system: Ba/F3 cells into which pCMX-GCRER was introduced; experiment: XTT proliferation assay, Ba/F3 cells with pCMX-GCRER; format: cell-based; details: for proliferation of IL-3-independent cells by stimulation: stimulation with G-CSF or estradiol, FIG. 3
Text: The Ba/F3 cells into which “pCMX-GCRER” was introduced were examined.

[4] = test system: Ba/F3 cells into which pCMX-GRΔ(5-195, 725-756)/ER was introduced; experiment: XTT proliferation assay, Ba/F3 cells with pCMX-GCRΔ(5-195, 725-756)/ER; format: cell-based; details: estrogen or G-CSF stimulation
Ba/F3 cells = experiment: MTS cell proliferation assay of Ba/F3 cells transduced with Mpl chimeric genes; format: cell-based
Description: BOSC23 cells were transfected with MSCV/ΔGCR-ER orMSCV/Mpl-ER or MSCV/ΔGCR-Mpl-ER or MSCV/ΔGCR-Mpl-TmR-IRES-EGFP using Transfection MBS Mammalian Transfection Kit (Stratagene) and the viral supernatants were harvested on day two post-transfection. Fibronectin-assisted transduction of IL3-dependentBa/F3 cells was carried out on 6-well plates precoated with CH296 fibronectin fragment (Retronectin; Takara Shuzo) according to a standard procedure. After retroviral infection, ΔGCR-Mpl-TmR-IRES-EGFP transduced Ba/F3 cells (BaF/ΔGCR-Mpl-TmR) were selected with EPICS Elite ESP Cell Sorter. GFP-positive cells were […] and were cloned by limiting dilution with 10^−7 M 4-hydroxytamoxifen (Tm).
Cell proliferation assay was periodically performed using CellTier 96 Aqueous One Solution Cell Proliferation Assay {3-(4,5-dimethylthiazol-2-yl)-5-(3-carboxymethoxyphenyl)-2-(4-sulfophenyl)-2H-tetrazolium (MTS); Promega, Madison, Wis.} essentially according to the manufacturer's instruction. In brief, 20 μl per well of MTS-labeling mixture was added. After the incubation at 37° C. for 2 hours, the spectrophotometeical absorbance was measured at the wave length of 490 nm and 650 nm.

[5] = XTT day four vs day zero, FIG. 19

Molecule | toxic effects [1] | growth of BaF/ΔGCRTmR clones with stimulator (BaF/ΔGCRTmR clones) | optimal concentration of Tm to stimulate BaF/GCRTmR (BaF/GCRTmR clones) | response to 10 M Tm, clone 3 (BaF/GCRTmR clones; BaF/GCRTmR clone 3, 10 M Tm as printed) | growth of GCRTmR-transduced Ba/F3 cells with stimulator (BaF/GCRTmR clones) | Tm concentration at which all three clones grew well (BaF/GCRTmR clones; [5]) | time until cells stopped growing and died upon removal of Tm (BaF/GCRTmR clones; long-term culture without IL-3, FIG. 18) [h] | time Tm alone could support the cells in long-term culture (BaF/GCRTmR clones; without IL-3, FIG. 18) | support of untransduced Ba/F3 by stimulator (Parental Ba/F3 cells) | cell proliferation by stimulation [2] | E2 concentration inducing proliferation of GCRER-expressing Ba/F3 (GCRER-expressing Ba/F3) | E2 dose optimal to support Ba/F3 cells expressing GCRER or ΔGCRER (GCRER-expressing Ba/F3; previous study) | estradiol concentrations at which cell proliferation was observed ([3]; estradiol varied between 10^−14 and 10^−7 M, FIG. 4) | proliferation of IL-3-independent cells by stimulation [3] | response to 10^−6 M E2, clone 3 (BaF/GCRTmR clones; BaF/GCRTmR clone 3, 10^−6 M E2) | response to 10^−6 M E2, the other clones (BaF/GCRTmR clones; BaF/GCRTmR clones 1 and 2, 10^−6 M E2) | E2 concentration up to which no growth was observed (BaF/GCRTmR clones; [5]) | cell proliferation by stimulation [4] | growth response to TPO in the absence of IL-3 (Ba/F3 cells; 100 ng/ml rhTPO) | growth response to estrogen (E2) in the absence of IL-3 (Ba/F3 cells; 10^−7M β-estradiol)
4-hydroxytamoxifen [Tm] | neither reagent showed toxic effects | proliferated | 10^−7-10^−6 M | partially responded | grew continuously | 10^−7-10^−6 M | ≤ 24 | at least 36 days | did not support |  |  |  |  |  |  |  |  |  |  | 
C[C@]12CC[C@@H]3c4ccc(O)cc4CC[C@H]3[C@@H]1CC[C@@H]2O [estradiol, β-estradiol] |  |  |  |  | had no effect |  |  |  | did not support | caused cell proliferation | ≥ 10^−10 M | 10^−7 M | 10^−9 to 10^−7 M | proliferated | limited response | inert | up to 10^−7 M | cell proliferation was caused |  | 
Mpl-ER: fusion protein between Mpl and ER (protein) QDVSLLASDSEPLKCFSRTFEDLTCFWDEEEAAPSGTYQLLYAYPREKPRACPLSSQSMPHFGTRYVCQFPDQEEVRLFFPLHLWVKNVFLNQTRTQRVLFVDSVGLPAPPSIIKAMGGSQPGELQISWEEPAPEISDFLRYELRYGPRDPKNSTGPTVIQLIATETCCPALQRPHSASALDQSPCAQPTMPWQDGPKQTSPSREASALTAEGGSCLISGLQPGNSYWLQLRSEPDGISLGGSWGSWSLPVTVDLPGDAVALGLQCFTLDLKNVTCQWQQQDHASSQGFFYHSRARCCPRDRYPIWENCEEEEKTNPGLQTPQFSRCHFKSRNDSIIHILVEVTTAPGTVHSYLGSPFWIHQAVRLPTPNLHWREISSGHLELEWQHPSSWAAQETCYQLRYTGEGHQDWKVLEPPLGARGGTLELRPRSRYRLQLRARLNGPTYQGPWSSWSDPTRVETATETAWISLVTALHLVLGLSAVLGLLLLRWQFPAHYRRLRHALWPSLPDLHRVLGQYLRDTAALSPPKATVSDTCEEVEPSLLEILPKSSERTPLPLCSSQAQMDYRRLQPSCLGTMPLSVCPPMAESGSCCTTHIANHSYLPLSYWQQPGTSGDMRAANLWPSPLVIKHTKKNSPALSLTADQMVSALLDAEPPLIYSEYDPSRPFSEASMMGLLTNLADRELVHMINWAKRVPGFGDLNLHDQVHLLECAWLEILMIGLVWRSMEHPGKLLFAPNLLLDRNQGKCVEGMVEIFDMLLATSSRFRMMNLQGEEFVCLKSIILLNSGVYTFLSSTLKSLEEKDHIHRVLDKINDTLIHLMAKAGLTLQQQHRRLAQLLLILSHIRHMSNKGMEHLYNMKCKNVVPLYDLLLEMLDAHRLHAPASRMGVPPEEPSQSQLTTTSSTSAHSLQTYYIPPEAEGFPNTI |  |  |  |  |  |  |  |  |  |  |  |  |  |  |  |  |  |  | acquired the ability to proliferate | acquired the ability to proliferate
G-CSF: cytokine (hematopoietic factor); human G-CSF provided by Chugai Pharmaceuticals (protein) TPLGPASSLPQSFLLKCLEQVRKIQGDGAALQEKLCATYKLCHPEELVLLGHSLGIPWAPLSSCPSQALQLAGCLSQLHSGLFLYQGLLQALEGISPELGPTLDTLQLDVADFATTIWQQMEELGMAPALQPTQGAMPAFASAFQRRAGGVLVASHLQSFLEVSYRVLRHLAQP |  | did not respond |  |  | grew continuously |  |  |  | did not support | blocked |  |  |  | proliferated |  |  |  | no response |  | 

Source: patent publication US20030166161A1, “Gene that imparts selective proliferative activity” (priority 1997, published 2003)
